The IC90 is the concentration needed for an effect of 90%.

This test relates to M. tuberculosis H37Rv growth inhibition. In words: Mycobacterium tuberculosis H37Rv growth inhibition, putative kinase inhibitor library, confirmatory dose response (AID 2842).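 Further: bacteria incubated one week before Alamar blue readout.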

Converted amounts (≈) assume the structure as drawn.

Consider `Cc1ccc2sc(NNC(=O)c3cc4ccccc4oc3=O)nc2c1C`, for which the IC90 was 4.21 µg/mL (≈ 11.5 µM). As for `CCN(CC)S(=O)(=O)c1ccc(C(=O)Nc2nnc(-c3cc(C)ccc3C)o2)cc1`, the figure is 13.1 µg/mL (≈ 30.5 µM).

As for `COc1ccc(OC)c2sc(N(CCCn3ccnc3)C(=O)c3ccc(F)cc3)nc12`, the 90% effect concentration (IC90) was 13.5 µg/mL (≈ 30.6 µM). As for `COc1ccccc1-c1nnc(Nc2nc3c(F)cccc3s2)o1`, the figure is 3.16 µg/mL (≈ 9.23 µM). For the compound `CCOc1cccc2sc(Nc3nc4ccc(OC)cc4s3)nc12`, the IC90 was 3.19 µg/mL (≈ 8.92 µM).

With `CCOc1ccc2nc(SC3CC(=O)N(c4ccc(N5CCCCC5)cc4)C3=O)sc2c1` (stereo unspecified), the IC90 was 24.8 µg/mL (≈ 53 µM).

With `Cc1cc(C)c2sc(NNC(=O)c3ccc(S(=O)(=O)N4CCCCC4)cc3)nc2c1`, the IC90 was 29.4 µg/mL (≈ 66 µM).

As for `Cc1ccc(C2=NC(C)(C)N=C2SCC(=O)Nc2ccc(C)c(C)c2)cc1`, the concentration for an effect of 90% (IC90) was 23.5 µg/mL (≈ 61.9 µM). As for `O=C(Nc1nnc(-c2ccc(Cl)cc2)o1)c1ccccc1F`, the figure is 0.72 µg/mL (≈ 2.27 µM); as for `COc1ccc(-c2nnc3c4cc5c(cc4n(Cc4cccc(OC)c4)cc2-3)OCCO5)cc1`, 5.28 µg/mL (≈ 11.6 µM); as for `CC(=O)N1CCc2c(sc(NC(=O)c3ccc(-c4ccccc4)cc3)c2C(N)=O)C1`, 20.4 µg/mL (≈ 48.7 µM).

For the compound `CCC(=O)Nc1nnc(-c2ccc(Br)cc2)o1`, the IC90 is 6.26 µg/mL (≈ 21.1 µM). In the case of `COc1ccc(C(=O)NNc2nc3cc(C)cc(C)c3s2)cc1` it was 38.8 µg/mL (≈ 118 µM). Turning to `Cc1ccc2nc(NNC(=O)c3nc4ccccc4s3)sc2c1`, the IC90 was 6.73 µg/mL (≈ 19.8 µM).

Turning to `C=CCN(CC=C)S(=O)(=O)c1ccc(C(=O)Nc2nnc(-c3cc(Cl)ccc3Cl)o2)cc1`, the IC90 was 12.8 µg/mL (≈ 25.9 µM).

For the compound `COC(=O)c1ccc(C(=O)NNc2nc3c(C)cc(C)cc3s2)cc1`, the IC90 was 6.49 µg/mL (≈ 18.3 µM). On to `O=C(COc1ccccc1)Nc1nnc(-c2cc(Cl)ccc2Cl)o1`, for which the IC90 is 27.8 µg/mL (≈ 76.4 µM). As for `CC(C)CCn1c(N2CCN(Cc3cccc(Cl)c3)CC2)nc2c1c(=O)[nH]c(=O)n2C`, the figure is 14.1 µg/mL (≈ 31.8 µM); as for `O=C(Nc1nnc(C2=COCCO2)o1)c1cccc(Cl)c1`, 3.49 µg/mL (≈ 11.3 µM); as for `Cc1cc(Cl)ccc1N/C=C(\C#N)c1nc2ccccc2[nH]1`, 23.9 µg/mL (≈ 77.4 µM). In the case of `Cc1ccc(-c2nnc(NC(=O)c3ccc([N+](=O)[O-])s3)o2)c(C)c1` it was 0.61 µg/mL (≈ 1.77 µM); in that of `Clc1cccc(Nc2ccc(NCc3ccccc3)nn2)c1`, 6.71 µg/mL (≈ 21.6 µM); in that of `Cc1cccc(C(=O)Nc2nnc(-c3cc(C)ccc3C)o2)c1`, 3.39 µg/mL (≈ 11 µM). In the case of `O=C(Nc1nnc(-c2ccco2)o1)C1CCCCC1` it was 50.4 µg/mL (≈ 193 µM); in that of `COc1ccc(OC)c(Nc2nc(NCCN(C)C)nc3c2cnn3-c2ccccc2)c1`, 7.29 µg/mL (≈ 16.8 µM). Turning to `Cc1c(C)n2c3c(=O)[nH]c(=O)n(C)c3nc2n1CCCNc1ccccc1Cl`, the IC90 is 25.4 µg/mL (≈ 63.4 µM). In the case of `O=C(Nc1nnc(-c2ccc3c(c2)CCCC3)o1)c1cc(Cl)sc1Cl` it was 3.53 µg/mL (≈ 8.95 µM); in that of `O=C(c1cccs1)N(CCCn1ccnc1)c1nc2ccc(F)cc2s1`, 3.01 µg/mL (≈ 7.79 µM); in that of `CCOC(=O)N1CCc2c(sc(NC(C)=O)c2C(=O)OC)C1`, 14 µg/mL (≈ 43 µM).

Take `N#C/C(=C\Nc1ccccc1)c1nc2ccccc2[nH]1`: the IC90 is 3.25 µg/mL (≈ 12.5 µM).

Regarding `O=C(Nc1nnc(-c2ccc(Br)cc2)o1)c1cc(Cl)sc1Cl`, the concentration for an effect of 90% (IC90) was 3.43 µg/mL (≈ 8.18 µM).

Turning to `CSc1ccccc1-c1nnc(NC(=O)c2cc(Cl)ccc2Cl)o1`, the IC90 was 0.98 µg/mL (≈ 2.58 µM). On to `COc1ccc2nc(N(CCCn3ccnc3)C(=O)Cc3ccc(F)cc3)sc2c1`, for which the IC90 was 5.64 µg/mL (≈ 13.3 µM).

`O=C(Nc1nnc(C2=COCCO2)o1)c1ccc2c(c1)CCCC2`: the IC90 was 0.44 µg/mL (≈ 1.34 µM). On to `CCC(=O)Nc1nnc(-c2cccs2)o1`, for which the IC90 was 17.1 µg/mL (≈ 76.8 µM). In the case of `O=C(Nc1nnc(-c2ccc(Br)cc2)o1)c1sc2ccccc2c1Cl` it was 6.7 µg/mL (≈ 15.4 µM); in that of `O=C(Nc1nnc(-c2cc(Cl)ccc2Cl)o1)c1ccccc1F`, 0.43 µg/mL (≈ 1.22 µM); in that of `CC1CCN(S(=O)(=O)c2ccc(C(=O)Nc3nnc(-c4cc(Cl)ccc4Cl)o3)cc2)CC1`, 35.4 µg/mL (≈ 71.5 µM). For the compound `Fc1ccc(N2CCN(c3nc(Nc4ccccc4)c4nccnc4n3)CC2)cc1`, the 90% effect concentration (IC90) was 1.69 µg/mL (≈ 4.21 µM). As for `Cc1ccc(-c2nnc(NC(=O)C3=COCCO3)o2)c(C)c1`, the figure is 7.35 µg/mL (≈ 24.4 µM); as for `CCN1C(=O)c2cccc3c(NC(=O)c4ccc(Cl)s4)ccc1c23`, 8.65 µg/mL (≈ 24.2 µM). For `O=C(Nc1nnc(-c2ccc(Cl)cc2)o1)c1cc2ccccc2oc1=O`, the IC90 is 18.2 µg/mL (≈ 49.4 µM). As for `O=C(Nc1nccs1)c1ccc2c(c1)CCCC2`, the figure is 3.85 µg/mL (≈ 14.9 µM); as for `C=CCOC(=O)COc1ccc2cc(-c3ccc(Cl)cc3)c(=O)oc2c1`, 2.53 µg/mL (≈ 6.82 µM); as for `CC(=O)OCn1nnc2ccccc2c1=O`, 3.33 µg/mL (≈ 15.2 µM).

Take `O=C(NNc1nc2c(F)cc(F)cc2s1)c1nc2ccccc2s1`: the concentration for an effect of 90% (IC90) was 21.8 µg/mL (≈ 60.2 µM). `Cc1ccc2nc(N(CCCn3ccnc3)C(=O)c3cccs3)sc2c1`: the IC90 was 1.73 µg/mL (≈ 4.52 µM). In the case of `Cc1ccc(C)c(-c2nnc(NC(=O)c3ccc([N+](=O)[O-])o3)o2)c1` it was 1.29 µg/mL (≈ 3.93 µM); in that of `O=C(/C=C/c1cccs1)N(CCCn1ccnc1)c1nc2ccccc2s1`, 1.43 µg/mL (≈ 3.62 µM). In the case of `COc1ccccc1-c1cnn2c(Nc3ccc(C)c(C)c3)cc(C)nc12` it was 14.4 µg/mL (≈ 40.3 µM); in that of `O=C(/C=C/c1ccccc1)Nc1nc2c(s1)COc1ccccc1-2`, 6.8 µg/mL (≈ 20.3 µM).

Source of the values: PubChem BioAssay AID2842 (Southern Research Institute, 2010).
